In general, melting point refers to the temperature of the solid-liquid transition. In turn, `N#CCC(CC#N)c1cccc(Cl)c1Cl` came in with a melting point of 76 to 78 °C. As for `CC1CN(c2cccc(Cl)n2)N=C1N` (stereo not given), the melting point lay within 175 to 176 °C. The molecule `CCCn1nc2c(N)nc3ccccc3c2c1CC(C)(C)N` returned a melting point of 193 to 195 °C. Molecule `CCCNC(=O)C1(C/C=C/c2ccccc2)c2ccccc2-c2ccccc21` displayed a melting point of 95 to 97 °C. For `Cn1cccc1C(=O)CS(C)=O` (stereo not given), the melting point is 74 to 76 °C.

`COc1cnc(Cl)n2nc(N)nc12` displayed a melting point of 251 °C. Molecule `CC(C)c1cccc(-c2ccc(F)cc2)c1OCCO` came in with a melting point of 77 to 78 °C.

As to `O=C(NCc1cccs1)[C@@H]1CCCN(c2cccc3c2C(=O)N(Cc2ccncc2)C3=O)C1`, the melting point fell in the range of 193 to 194 °C. Molecule `Cc1nc2c(OCc3c(Cl)ccc(S(=O)(=O)N4CCC[C@H]4C(=O)NCc4ccc(C=NN)cc4)c3Cl)cccn2c1C` registered a melting point of 144 to 146 °C. For `CN(C)c1ccnc(N(C)C2CCN(CCCC(c3ccc(F)cc3)c3ccc(F)cc3)CC2)n1`, the melting point worked out at 106 °C. The molecule `O=C1CCC(CCC(=O)OCc2cccc(Cl)c2)N1` (stereo not given) yielded a melting point of 90 to 91 °C. For the molecule `CC1(CN2CCC(Cc3ccc(F)cc3)CC2)CC(c2ccc3[nH]c(=O)oc3c2)=NO1` (stereo not given), the melting point lay within 82 to 86 °C. Regarding `C#Cc1ccc2c(c1-c1cn(C3CC(O)C(COC(c4ccccc4)(c4ccc(OC)cc4)c4ccc(OC)cc4)O3)c(=O)[nH]c1=O)Cc1ccccc1-2` (stereo not given), the melting point fell in the range of 160 to 161 °C.

`C(=C\c1nc(CSc2ccc(CCCn3ccnc3)cc2)co1)/c1ccccc1` showed a melting point of 74 to 75 °C. With `COC(=O)CCCC(C)(C)c1cc(O)c(C(C)(C)C)cc1O`, the melting point was 136 to 139 °C. The molecule `Clc1ncnc2c1ncn2C1CCCCO1` (stereo not given) displayed a melting point of 70 to 71 °C. Under `N#Cc1ccc(NC(=O)c2c(O)ccc3ccccc23)c(OC(F)(F)F)c1` stands 169 °C; under `Cc1c(OCCBr)ccc2c(=O)cc(N3CCOCC3)oc12`, 210 to 212 °C.

`Cc1ccc([C@H]2Sc3cc(C)ccc3NC(=O)[C@H]2O)cc1` gave a melting point of 212 to 214 °C. In turn, `OC1CSC(Oc2cccc(-c3ccc(Cl)nc3)c2)C(O)C1O` (stereo not given) had a melting point of 189 °C. For the molecule `CS(=O)(=O)c1ccc(C(Cc2ccc(F)cc2)C(=O)Nc2cncc(Cl)n2)cc1` (stereo not given), the melting point is 192 to 193 °C. With `Cn1ncnc1COc1nn2c(-c3c(F)cccc3F)nncc2c1-c1ccccc1F`, the melting point is 163 °C. Consider `Cc1cc(C)c(N2CCCCC2)cc1NS(=O)(=O)C(F)(F)F`, for which the melting point is 92 to 94 °C. `CCS(=O)(=O)c1nnc(NN)s1` had a melting point of 166 to 167 °C. Under `Nc1ccc2c(c1)C(CN1CCCCC1)CO2` (stereo not given) stands 144 to 150 °C; under `COC(=O)c1ccc(CNC(=O)c2ccc(C(=O)NO)s2)cc1`, 156 to 166 °C; under `O=C(N1C=CC2=C(CCC=C2)c2ccccc21)n1ccnc1`, 189 to 190 °C. Under `Cc1nc(-c2ccc(C(F)(F)F)cc2)sc1C(=O)NCc1ccc(OC(C)(C)C(=O)O)cc1` stands 130 to 131 °C; under `Nc1ccccc1C(=O)NCCc1cccnc1`, 126 to 128 °C; under `C[C@H](NC(=O)OC(C)(C)C)[C@@H]1CCN(c2nc3c(cc2F)c(=O)n(N)c(=O)n3C2CC2)C1`, 175 to 177 °C.

Take `O=C(O)c1ccccc1Nc1ccncc1`: the melting point was 275 to 280 °C.

With `CC(C)c1ccc(S(=O)(=O)Nc2ccccc2C(=O)NCCc2ncc[nH]2)cc1`, the melting point lay within 210 to 218 °C.

The molecule `NC(=O)CCC1CN(c2ccc(C3=CCN(C=O)CC3)c(F)c2)C(=O)O1` (stereo not given) yielded a melting point of 148 to 151 °C. Regarding `COc1ccc(C(O)(C(F)(F)F)C(F)(F)F)cc1C=CC(=O)O`, the melting point lay in the range of 184 to 186 °C. `CC(C)(C)OC(=O)NC1CCCC(NC(=O)c2ccc(-c3[nH]nc4c3C(=O)c3c(NC(=O)NN5CCOCC5)cccc3-4)s2)C1` (stereo not given) returned a melting point above 300 °C. Consider `Cc1ccc(Cl)c(Nc2ccccc2-c2nnc(N)s2)c1Cl`, for which the melting point lay in the range of 219 to 226 °C.

For `CCCCCCCCCCCCNC1=NC(N2CCOCC2)=NCN1`, the melting point lay within 117 to 118 °C. Under `NC(N)=Nc1nc(N2CCOCC2)nc2c1ccc1ccccc12` stands 235 °C; under `COc1cc2ccccc2cc1O`, 108 to 109 °C.

The molecule `CCCc1nc2c(C)ccnc2n1Cc1ccc(-c2ccccc2-c2nnn[nH]2)cc1` came in with a melting point of 200 to 202 °C.

Take `C[C@@H](n1cnn(-c2ccc(OCC(F)(F)F)cc2)c1=O)[C@@]1(c2ccc(F)cc2F)CO1`: the melting point lay within 118 to 119 °C. Molecule `CC(=O)Nc1coc2ccc(C(C)(C)C)cc2c1=S` registered a melting point of 215 °C. Turning to `Nc1nc2ccccc2c2c1ncn2CCOCCCc1nccs1`, the melting point is 134 to 135 °C.

In the case of `O=C1N(c2c(Cl)cccc2Cl)Cc2cnc(Nc3ccccc3)nc2N1c1ccccc1`, the melting point worked out at 138 °C. For the molecule `CC(=S)NCC1CN(c2ccc(C(=O)Oc3c(F)c(F)c(F)c(F)c3F)c(F)c2)C(=O)O1` (stereo not given), the melting point was in the range of 163 to 164 °C. `CCCc1c(OCCC2Cc3cc(CC(=O)OC)ccc3O2)ccc(C(C)=O)c1O` (stereo not given): the melting point fell in the range of 59 to 60 °C. Under `Cn1c(OCC(F)(F)C(F)F)n[nH]c1=O` stands 101 °C; under `CCCCn1c(C)c(C)cc(NC(=O)Nc2ccccc2Br)c1=O`, 154 to 155 °C. Regarding `C=C1[C@H](C(=O)OC)[C@H]1C(=O)OC`, the melting point fell in the range of 34.1 to 34.9 °C.

As to `Fc1ccc(Nc2nnc(Cc3ccncc3)c3ccccc23)cc1Cl`, the melting point is 185 to 187 °C. Molecule `O=C(Cn1ccnc1)c1cccc2ccccc12` gave a melting point of 114 to 117 °C. The molecule `Fc1ccc(-n2ccc3cc(-c4ccccn4)ccc32)cc1` displayed a melting point of 119 to 121 °C. Under `CC(C)(O)CCCCCc1cccc(C=Cc2ccc(CO)c(CO)c2)c1` stands 93 to 95 °C. Under `CC(C)(C)c1ccc(-c2c(Cl)c(CCl)nc3sc4c(c23)CCN(Cc2ccccc2)C4)cc1` stands 208 to 209 °C.

`FC(F)(F)COc1cc(-c2cc(C(F)(F)F)n3cnc(-c4ccncc4)c3n2)ccc1C(F)(F)F` gave a melting point of 233 °C. `COP(=O)(OC)C(c1ccc(F)cc1)(c1ccccc1F)c1ccccc1Cl` (stereo not given) registered a melting point of 132 °C. In turn, `O=C1CCC(N2CCOc3cc(Br)ccc32)CC1` displayed a melting point of 102 °C.

Regarding `COc1ccc(-c2nc(-c3ccc(OC)cc3)nc(-c3ccccc3O)n2)cc1`, the melting point was 205 to 206 °C. On to `CCCc1c(/C=C/c2ccccc2C)nc2ccc(C(=O)O)cn2c1=O`, for which the melting point was in the range of 190 to 191 °C. As for `CC(C)(F)C1COCc2nc3c(N)nc4cc(O)ccc4c3n21` (stereo not given), the melting point fell in the range of 219 to 221 °C. Under `CSc1ccc2c3c(cccc13)C(=O)N2CCCC#N` stands 120 to 122 °C; under `COc1cc(OCCCO)c(C=CC(=O)c2ccc(S(=O)(=O)Nc3cc(C)on3)cc2)cc1-c1cccs1`, 178 to 182 °C. Under `CC(=O)SCC(C(=O)NC(Cc1occ2ccccc12)C(=O)O)C(F)(F)F` (stereo not given) stands 147 to 149 °C; under `CCCCCS(=O)(=O)NC(=O)CCc1cc(OCc2ccccc2)nn1Cc1ccc(Cl)cc1Cl`, 139 to 141 °C; under `CCOC(=O)CCCn1c(=O)[nH]c2ccccc21`, 88 °C. Under `Nc1ccc(CP2(=O)OCCCCO2)cc1` stands 128 to 129 °C; under `CCCCCS(=O)(=O)NCC(=O)O`, 87 to 90 °C; under `COC(=O)[C@H](CC(C)C)NC(=O)OCC1c2ccccc2-c2ccccc21`, 86 to 87 °C.

Regarding `O=C(O)c1cc2cc(Cl)ccc2nc1NC1(C(=O)O)CCc2ccccc21` (stereo not given), the melting point is 141 to 144 °C. As for `NC(=O)C=Cc1cccs1`, the melting point turned out to be 153 °C. With `ClCc1cccc(-c2nnn[nH]2)c1`, the melting point lay within 152 to 154 °C. Under `Cc1cc(-c2nn(C3CCCC3)c3c(F)cccc23)ccc1O` stands 107 °C; under `COC(=O)C1=CCN=C(c2ccccc2F)c2cc(Cl)ccc21`, 106 to 107 °C; under `CC(=O)OCc1nc2c(NCc3c(C)cccc3C)cc(Br)cc2n1C`, 188 to 190 °C. Molecule `CC(C)CC(CNOCc1ccccc1)C(=O)O` (racemic) gave a melting point of 73 to 75 °C. Under `CC(O)c1cc(Br)ccc1N` (stereo not given) stands 95 to 96 °C; under `CCCCN1CSC(=S)N(Cc2ccncc2)C1`, 75 to 80 °C. `COc1ccccc1C1(CC(=O)N2CCN(c3ccncc3)CC2)C(=O)Nc2ccc(Cl)cc21` (stereo not given) came in with a melting point of 111 °C. Under `O=[N+]([O-])CS(=O)(=O)c1ccccc1C(F)(F)F` stands 80 °C; under `CC(C)(C)[Si](C)(C)OC1CC=C(c2ccc(NC(=O)OCc3ccccc3)c(F)c2)CC1` (stereo not given), 116 to 119 °C; under `COc1ccc(OC)c2c(N=[N+]=[N-])ccnc12`, 106 °C. As to `COCCNC(=O)c1cccc(-c2ccc(F)c3cc(Cc4cc(F)cc(Cl)c4)sc23)c1`, the melting point was in the range of 90 to 110 °C.

The molecule `COc1ccc(COc2cc3c(cc2-c2cc(C=CC(=O)O)ccc2OC)C(C)(C)CCC3(C)C)cc1` returned a melting point of 201 to 203 °C. As to `CCOC(=O)CN(C=C(C(=O)OCC)C(=O)OCC)N=Cc1ccccc1`, the melting point lay in the range of 105 to 106 °C. `COC(=O)c1ccc2c(c1)S(=O)(=O)c1ccccc1NC2=O` yielded a melting point of 300 to 302 °C. As for `COCC1CCCN1S(=O)(=O)c1ccc2c(c1)C(=O)C1=NCC3(CCCC3)CN12` (stereo not given), the melting point was 171 to 172 °C. For the molecule `Cc1cc2c(cc1C)C(c1ccccc1)(C(F)(F)C(F)(F)F)c1cc(C)c(C)cc1O2`, the melting point was 178 to 179 °C.

For the molecule `CCOC(=O)C(=CN(CC)c1cccs1)C(=O)OCC`, the melting point was in the range of 41 to 42 °C. As for `CCC(=O)c1cc(C2(c3cccc(-c4cccnc4F)c3)N=C(N)N(C)C2=O)cn1CC(F)(F)F` (stereo not given), the melting point was 108 to 110 °C. The molecule `Cn1c(CO)nc2ccc(OCc3ccccc3)nc21` yielded a melting point of 133 to 135 °C.
